Measurements taken from patent US11970494B2, “6-heteroaryloxy benzimidazoles and azabenzimidazoles as JAK2 inhibitors” (Ajax Therapeutics, Inc., priority 2021, dated 2024).

biological target: T1, JAK2 (JH1 domain-catalytic, Y1007F,Y1008F) kinase (Homo sapiens, UniProt O60674, Y1007F/Y1008F); assay: JAK2 Binding Assay (JAK2 JH1 Domain Binding Assay); settings: JAK2 JH1 domain binding, qPCR detection; read-out: JAK2 Kd
T1 construct: made in house; host or cells: transiently transfected HEK293 cells
T1 sequence (O60674 849-1124 Y1007F/Y1008F limits assumed): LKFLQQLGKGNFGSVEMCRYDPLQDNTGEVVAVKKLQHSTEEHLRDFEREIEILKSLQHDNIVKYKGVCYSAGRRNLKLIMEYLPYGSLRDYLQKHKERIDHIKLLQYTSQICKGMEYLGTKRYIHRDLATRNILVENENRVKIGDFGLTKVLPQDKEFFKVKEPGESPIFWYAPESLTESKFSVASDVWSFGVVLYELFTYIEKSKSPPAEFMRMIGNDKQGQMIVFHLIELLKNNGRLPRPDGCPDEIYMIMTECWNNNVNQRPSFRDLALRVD

Structure (SMILES)	Kd [nM]
CN(C)C(=O)Nc1cc(Oc2cnc3nc(Nc4cc5n(n4)CCN5C(C)(C)C)n(C)c3c2C#N)ccn1 [Example I-70, 3-(4-((2-((1-(tert-butyl)-2,3-dihydro-1H-imidazo[1,2-b]pyrazol-6-yl)amino)-7-cyano-1-methyl-1H-imidazo[4,5-b]pyridin-6-yl)oxy)pyridin-2-yl)-1,1-dimethylurea]	10 to 50
Cn1cc(C(F)(F)F)cc(Nc2nc3ncc(Oc4ccnc(NC(=O)OC5COC5)c4)c(C#N)c3n2C)c1=O [Example I-16, Oxetan-3-yl(4-((7-cyano-1-methyl-2-((1-methyl-2-oxo-5-(trifluoromethyl)-1,2-dihydropyridin-3-yl)amino)-1H-imidazo[4,5-b]pyridin-6-yl)oxy)pyridin-2-yl)carbamate]	< 10
Cn1cc(C(F)(F)F)cc(Nc2nc3ncc(Oc4ccnc(NC(=O)N5CC(O)C5)c4)c(C#N)c3n2C)c1=O [Example I-8, N-(4-((7-cyano-1-methyl-2-((1-methyl-2-oxo-5-(trifluoromethyl)-1,2-dihydropyridin-3-yl)amino)-1H-imidazo[4,5-b]pyridin-6-yl)oxy)pyridin-2-yl)hydroxyazetidine-1-carboxamide]	< 10
CN1CCO[C@H](CC(=O)Nc2cc(Oc3cnc4nc(Nc5cc(C(F)(F)F)cn(C)c5=O)n(C)c4c3Cl)ccn2)C1 (single isomer, unassigned) [Example I-78-a]	< 10
CN(C)C(=O)Nc1cc(Oc2cnc3nc(Nc4cc5n(n4)CCN(C)C5=O)n(C)c3c2Cl)ccn1 [Example I-46, 3-(4-((7-chloro-1-methyl-2-((5-methyl-4-oxo-4,5,6,7-tetrahydropyrazolo[1,5-a]pyrazin-2-yl)amino)-1H-imidazo[4,5-b]pyridin-6-yl)oxy)pyridin-2-yl)-1,1-dimethylurea]	> 5000
CO[C@@H]1CCN(C(=O)Nc2cc(Oc3cnc4nc(Nc5cc(C(F)(F)F)cn(C)c5=O)n(C)c4c3C#N)ccn2)C1 [Example I-13, (R)-N-(4-((7-cyano-1-methyl-2-((1-methyl-2-oxo-5-(trifluoromethyl)-1,2-dihydropyridin-3-yl)amino)-1H-imidazo[4,5-b]pyridin-6-yl)oxy)pyridin-2-yl)methoxypyrrolidine-1-carboxamide]	< 10
Cn1c(Nc2cc(C(F)(F)F)cn(CCO)c2=O)nc2ncc(Oc3ccnc(NC(=O)C4CC4)c3)c(C#N)c21 [Example I-89, N-(4-((7-cyano-2-((1-(2-hydroxyethyl)-2-oxo-5-(trifluoromethyl)-1,2-dihydropyridin-3-yl)amino)-1-methyl-1H-imidazo[4,5-b]pyridin-6-yl)oxy)pyridin-2-yl)cyclopropanecarboxamide]	< 10
Cn1cc(C(F)(F)F)cc(Nc2nc3ncc(Oc4ccnc(NC(=O)C[C@H]5CCCCO5)c4)c(C#N)c3n2C)c1=O [Example I-74-b]	< 10
Cn1cc(C(F)(F)F)cc(Nc2nc3ncc(Oc4ccnc(NC(=O)CO)c4)c(Cl)c3n2C)c1=O [Example I-86, N-(4-((7-chloro-1-methyl-2-((1-methyl-2-oxo-5-(trifluoromethyl)-1,2-dihydropyridin-3-yl)amino)-1H-imidazo[4,5-b]pyridin-6-yl)oxy)pyridin-2-yl)hydroxyacetamide]	< 10
Cn1cc(C(F)(F)F)cc(Nc2nc3ncc(Oc4ccnc(NC(=O)CNCCF)c4)c(Cl)c3n2C)c1=O [Example I-87, N-(4-((7-chloro-1-methyl-2-((1-methyl-2-oxo-5-(trifluoromethyl)-1,2-dihydropyridin-3-yl)amino)-1H-imidazo[4,5-b]pyridin-6-yl)oxy)pyridin-2-yl)-2-((2-fluoroethyl)amino)acetamide]	< 10
CC(=O)Nc1cc(Oc2cnc3nc(Nc4cc([C@@H]5CCCN5C)cc(C(F)(F)F)c4)n(C)c3c2Cl)ccn1 (single isomer, unassigned) [Example I-102-b]	< 10
[2H]C([2H])([2H])N(C(=O)Nc1cc(Oc2cnc3nc(Nc4cc(C(F)(F)F)cn(C)c4=O)n(C)c3c2C#N)ccn1)C([2H])([2H])[2H] [Example I-52, 3-(4-((7-cyano-1-methyl-2-((1-methyl-2-oxo-5-(trifluoromethyl)-1,2-dihydropyridin-3-yl)amino)-1H-imidazo[4,5-b]pyridin-6-yl)oxy)pyridin-2-yl)-1,1-bis(methyl-d3)urea]	< 10

More lines, now with the values ahead:

Kd [nM]	Structure (SMILES)
< 10	CC(=O)Nc1cc(Oc2cnc3nc(Nc4cc5n(n4)CCCC5(F)F)n(C)c3c2C#N)ccn1 [Example I-93, N-(4-((7-cyano-2-((4,4-difluoro-4,5,6,7-tetrahydropyrazolo[1,5-a]pyridin-2-yl)amino)-1-methyl-1H-imidazo[4,5-b]pyridin-6-yl)oxy)pyridin-2-yl)acetamide]
< 10	Cn1c(Nc2cc3n(n2)CCOC3(C)C)nc2ncc(Oc3ccnc(NC(=O)O[C@H]4CCOC4)c3)c(C#N)c21 [Example I-49, (S)-Tetrahydrofuran-3-yl(4-((7-cyano-2-((4,4-dimethyl-6,7-dihydro-4H-pyrazolo[5,1-c][1,4]oxazin-2-yl)amino)-1-methyl-1H-imidazo[4,5-b]pyridin-6-yl)oxy)pyridin-2-yl)carbamate]
< 10	CO[C@H]1CCN(C(=O)Nc2cc(Oc3cnc4nc(Nc5cc6n(n5)CCC65CCC5)n(C)c4c3C#N)ccn2)C1 [Example I-59, (S)-N-(4-((7-cyano-2-((5′,6′-dihydrospiro[cyclobutane-1,4′-pyrrolo[1,2-b]pyrazol]-2′-yl)amino)-1-methyl-1H-imidazo[4,5-b]pyridin-6-yl)oxy)pyridin-2-yl)-3-methoxypyrrolidine-1-carboxamide]
< 10	CNC(=O)Nc1cc(Oc2cnc3nc(Nc4cc5n(n4)CCC54CCC4)n(C)c3c2C#N)ccn1 [Example I-58, 1-(4-((7-cyano-2-((5′,6′-dihydrospiro[cyclobutane-1,4′-pyrrolo[1,2-b]pyrazol]-2′-yl)amino)-1-methyl-1H-imidazo[4,5-b]pyridin-6-yl)oxy)pyridin-2-yl)-3-methylurea]
< 10	CN(C)C(=O)Nc1cc(Oc2cnc3nc(Nc4cc5n(n4)CCCC5(F)F)n(C)c3c2C#N)ccn1 [Example I-21, 3-(4-((7-cyano-2-((4,4-difluoro-4,5,6,7-tetrahydropyrazolo[1,5-a]pyridin-2-yl)amino)-1-methyl-1H-imidazo[4,5-b]pyridin-6-yl)oxy)pyridin-2-yl)-1,1-dimethylurea]
< 10	COC(=O)Nc1cc(Oc2cnc3nc(Nc4cc5n(n4)CCCC5(F)F)n(C)c3c2C#N)ccn1 [Example I-22, Methyl(4-((7-cyano-2-((4,4-difluoro-4,5,6,7-tetrahydropyrazolo[1,5-a]dpyridin-2-yl)amino)-1-methyl-1H-imidazo[4,5-b]pyridin-6-yl)oxy)pyridin-2-yl)carbamate]
< 10	COC(=O)Nc1cc(Oc2cnc3nc(Nc4cc5n(n4)CCCC54CC4)n(C)c3c2C#N)ccn1 [Example I-63, methyl (4-((7-cyano-2-((6′,7′-dihydro-5′H-spiro[cyclopropane-1,4′-pyrazolo[1,5-a]pyridin]-2′-yl)amino)-1-methyl-1H-imidazo[4,5-b]pyridin-6-yl)oxy)pyridin-2-yl)carbamate]
< 10	Cn1c(Nc2cc3n(n2)CCC32CCC2)nc2ncc(Oc3ccnc(NC(=O)O[C@@H]4CCOC4)c3)c(C#N)c21 [Example I-121, (R)-tetrahydrofuran-3-yl (4-((7-cyano-2-((5′,6′-dihydrospiro[cyclobutane-1,4′-pyrrolo[1,2-b]pyrazol]-2′-yl)amino)-1-methyl-1H-imidazo[4,5-b]pyridin-6-yl)oxy)pyridin-2-yl)carbamate]
